In publication PMC7459541, “Frog Skin-Derived Peptides Against Corynebacterium jeikeium: Correlation between Antibacterial and Cytotoxic Activities” (Antibiotics, 2020):
Where no end group is shown, it is not given here.

Columns and labels:
[1] = test system: murine RAW 264.7 macrophages; settings: 64 µM; cited from earlier work
C. jeikeium ATCC BAA-949 = type: cell-based, Corynebacterium jeikeium; settings: lowest peptide concentration visually inhibiting growth after 20 h at 37 °C; TSB + 0.1% Tween 80; 2-fold serial dilutions; inoculum 2x10^6 CFU/mL diluted 1:1
Protocol: The MIC of the different AMPs against C. jeikeium ATCC BAA-949 were determined following the previously described procedure with some modifications. The bacterium was grown in TSB^+ up to an optical density (O.D.) of 0.8 (λ = 590 nm) and diluted to reach a concentration of 2× 10^6 colony forming units (CFU) per mL. Aliquots (50 µL) of this dilution were added to 50 µL of TSB^+ supplemented with 2-fold serial dilution of peptides previously dispensed in the wells of a 96 well plate. Controls were bacteria not treated with the peptides. […] MBC was defined as the lowest peptide concentration able to cause a ≥3 log reduction in the number of cells of the initial inoculum after 20 h of incubation.

| Substance | cell viability [1] | MIC (C. jeikeium ATCC BAA-949) |
| --- | --- | --- |
| GIFSKLAGKKIKNLLISGLKG-NH2 [Esc(1-21), esculentin-1a(1-21)] | about 50% |  |
| IIGPVLGLVGSALGGLLKKI-NH2 [Bombinin H2, bombinin H2] |  | 8 µM |
